US20240368106A1, “HYDROXY AND ALKOXY COUMARINS AS MODULATORS OF POLRMT” (Pretzel Therapeutics, Inc., priority 2021, published 2024)

Target: POLRMT (Homo sapiens (Human), UniProt O00411)
Assay: homogeneous TR-FRET assay of mitochondrial transcription (inhibition of POLRMT)
Type: biochemical
Conditions: 7.5 nM POLRMT, 15 nM TFB2M, 30 nM TFAM, 0.5 nM DNA template, 500 μM NTPs, 37° C., 60 minutes
How it was run: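 Human POLRMT (7.5 nM) with TFB2M (15 nM), TFAM (30 nM), 0.5 nM linearized LSP plasmid template and 500 μM NTPs in pH 7.5 Tris/MgCl2 buffer, 60 min at 37 °C. Stopped with EDTA/high-salt; 407 bp transcript detected by hybridized Europium/ATTO647N probes. 665/620 nm ratio gives activity.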

Sequence of POLRMT (O00411 42-1230): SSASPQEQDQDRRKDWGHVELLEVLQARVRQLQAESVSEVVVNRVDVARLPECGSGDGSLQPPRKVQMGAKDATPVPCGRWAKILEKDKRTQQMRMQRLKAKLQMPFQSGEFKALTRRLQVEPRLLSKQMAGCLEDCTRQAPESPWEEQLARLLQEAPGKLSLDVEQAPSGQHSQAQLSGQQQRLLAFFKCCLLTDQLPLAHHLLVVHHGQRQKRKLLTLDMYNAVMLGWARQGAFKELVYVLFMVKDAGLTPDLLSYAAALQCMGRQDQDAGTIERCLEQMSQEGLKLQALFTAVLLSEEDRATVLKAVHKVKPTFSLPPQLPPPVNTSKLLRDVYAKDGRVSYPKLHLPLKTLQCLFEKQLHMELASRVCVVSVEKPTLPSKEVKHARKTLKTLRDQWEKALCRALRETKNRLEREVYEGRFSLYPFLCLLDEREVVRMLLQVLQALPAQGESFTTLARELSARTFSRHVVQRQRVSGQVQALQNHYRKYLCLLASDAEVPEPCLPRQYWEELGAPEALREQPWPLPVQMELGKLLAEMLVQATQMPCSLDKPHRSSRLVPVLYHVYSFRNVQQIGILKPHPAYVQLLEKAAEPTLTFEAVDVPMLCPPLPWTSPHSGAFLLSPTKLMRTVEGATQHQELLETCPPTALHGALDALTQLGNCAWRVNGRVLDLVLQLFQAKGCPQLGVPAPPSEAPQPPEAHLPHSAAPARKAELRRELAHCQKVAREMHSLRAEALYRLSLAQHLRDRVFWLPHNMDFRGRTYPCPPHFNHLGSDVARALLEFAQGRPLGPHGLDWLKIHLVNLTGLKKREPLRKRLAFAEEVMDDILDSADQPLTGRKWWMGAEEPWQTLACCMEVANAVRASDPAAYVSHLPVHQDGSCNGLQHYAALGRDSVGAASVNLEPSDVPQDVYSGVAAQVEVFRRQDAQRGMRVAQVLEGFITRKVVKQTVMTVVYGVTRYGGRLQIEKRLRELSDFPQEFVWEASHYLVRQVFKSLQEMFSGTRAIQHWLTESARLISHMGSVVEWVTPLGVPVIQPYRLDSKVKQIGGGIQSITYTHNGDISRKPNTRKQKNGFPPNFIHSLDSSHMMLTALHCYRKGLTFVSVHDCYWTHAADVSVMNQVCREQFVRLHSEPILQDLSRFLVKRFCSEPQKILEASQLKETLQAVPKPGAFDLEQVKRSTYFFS

| SMILES | IC50 [nM] |
| --- | --- |
| Cc1ccccc1-c1cc(=O)oc2cc(OC(C)C(F)(F)F)ccc12 (centres unmarked) [Example 109, 4-(o-tolyl)-7-((1,1,1-trifluoropropan-2-yl)oxy)-2H-chromen-2-one] | 300 |
| C[C@@H](Oc1ccc2c(-c3ccc(F)cc3Cl)cc(=O)oc2c1)C(=O)N1CCS(=O)(=O)CC1 [Example 110, (R)-4-(2-chloro-4-fluorophenyl)-7-((1-(1,1-dioxidothiomorpholino)-1-oxopropan-2-yl)oxy)-2H-chromen-2-one] | 500 |
| Cc1ccccc1-c1cc(=O)oc2cc(O[C@H](C)C(=O)N3CCS(=O)(=O)CC3)ccc12 [Example 111, (R)-7-((1-(1,1-dioxidothiomorpholino)-1-oxopropan-2-yl)oxy)-4-(o-tolyl)-2H-chromen-2-one] | 200 |
| Cc1cccc(C)c1-c1cc(=O)oc2cc(O[C@H](C)C(=O)N3CCS(=O)(=O)CC3)ccc12 [Example 112, (R)-4-(2,6-dimethylphenyl)-7-((1-(1,1-dioxidothiomorpholino)-1-oxopropan-2-yl)oxy)-2H-chromen-2-one] | 65000 |
| CCCOc1ccc2c(-c3ccccc3)cc(=O)oc2c1 [Example 113, 4-phenyl-7-propoxy-2H-chromen-2-one] | 4000 |
